According to patent US6211375A, “Pyridonecarboxylic acid derivatives or salts thereof and antibacterial agents containing the same as the active ingredient” (Wakunaga Pharmaceutical Co., Ltd., priority 1996, dated 2001):
Converted amounts (≈) assume the structure as drawn. Where two headings read alike, the source gives them in different places.

Assays:
S.aureus 209P = experiment: Antibacterial Activity, minimum growth inhibitory concentration (MIC), S.aureus 209P; type: cell-based; settings: Staphylococcus aureus, standard method of Japan Chemotherapy Society
Method: (§1) Minimum growth inhibitory concentration (MIC, μg/ml) was evaluated in accordance with the standard method of Japan Chemotherapy Society (Chemotherapy 29(1), 76, 1981). It should be noted that tosufloxacin was also evaluated for its minimum growth inhibitory concentration for the purpose of comparison.

ears = experiment: Phototoxicity Test (abnormality in the ears of mice after UVA irradiation); type: in vivo, Female ICR mice; settings: 40 mg/kg i.v., UVA 320 to 400 nm, 4 hours; for ear abnormality, point: 0 = no abnormality, 1 = very slight erythema, 2 = well defined erythema, 3 = moderate to severe erythema or edema
Method: Female ICR mice (5 to 6 week old) were intravenously administered with the test compound (40 mg/kg/10 ml), and irradiated with UVA (320 to 400 nm, 1.8 mW/cm^2 /sec) for 4 hours. Abnormality in the ears was monitored at 0 hour immediately after the irradiation and after 24 hours. The ear abnormality was evaluated by the following criteria: no abnormality (0 point), very slight erythema (1 point), well defined erythema (2 points), moderate to severe erythema or edema formation (3 points). Tosufloxacin which is a conventional known antibacterial agent was also tested in a similar way for the purpose of comparison.

P. aeruginosa IFO3445 = experiment: Antibacterial Activity, minimum growth inhibitory concentration (MIC), P. aeruginosa IFO3445; type: cell-based; settings: Pseudomonas aeruginosa, standard method of Japan Chemotherapy Society
Method: as §1

[1] = Absorption and Excretion (urine and bile recovery rates after oral administration); type: in vivo, Male SD rats; settings: rat, 20 mg/kg, rats, oral 20 mg/10 ml/kg
Method: A compound of the present invention was measured for its urine and bile recovery rates in rats after its oral administration to evaluate absorption and excretion of the compounds.
Male SD rats of 6 week old which had been fasted overnight were administered orally with 0.5% methylcellulose suspension of the test compounds (20 mg/10 ml/kg). The urine collection was continued until 24 hours after the administration. The concentration of the test compound in the urine was measured by paper disc method using Bacillus subtilis ATCC6633 for the test bacterium to determine the urine recovery rate.
Into choledoch duct of male SD rats of 6 week old which had been fasted overnight was inserted a polyethylene tube under etherization. After arousing, the rats were forcedly administered orally with the test compounds as in the case of the above (1), and bile collection was continued until 24 hours after the administration. The bile with no further treatment and the bile alkaline hydrolyzed (with 0.1N NaOH, 37° C., 1 hour) were measured for their concentration of the test compound by the same procedure as in the case of the above (1) to determine the bile recovery rate.

MIC (S.aureus 209P) | MIC (P. aeruginosa IFO3445) | dose excreted at 24 h ([1]; bile, 0-24 hours, bile after alkaline hydrolysis (0.1N NaOH, 37° C., 1 hour), read-out: Recovery rate (24 hours), Bile*) | dose excreted at 24 h ([1]; bile, 0-24 hours, bile with no further treatment, read-out: Recovery rate (24 hours), Bile) | dose excreted at 24 h ([1]; urine and bile, 24 hours, total recovery rate, read-out: Recovery rate (24 hours), Total recovery rate) | dose excreted at 24 h ([1]; urine, 0-24 hours, paper disc method with Bacillus subtilis ATCC6633, read-out: Recovery rate (24 hours), Urine) | SMILES | ear abnormality, occurrence (ears; 0 hour after irradiation) | ear abnormality, point (ears; 0 hour after irradiation) | ear abnormality, occurrence (ears; 24 hours after irradiation) | ear abnormality, point (ears; 24 hours after irradiation)
0.003 µg/mL (≈ 0.00694 µM) | 0.1 µg/mL (≈ 0.231 µM) |  |  |  |  | Cc1c(F)c(N2CC(N)C2)c(C)c2c1c(=O)c(C(=O)O)cn2-c1cc(N)c(F)cc1F [Compound of Ex. 10, 7-(3-aminoazetidin-1-yl)-1-(3-amino-4,6-difluorophenyl)-6-fluoro-5,8-dimethyl-4-oxo-1,4-dihydroquinoline-3-carboxylic Acid] | 0/3 | 0 point | 0/3 | 0 point
0.05 µg/mL (≈ 0.124 µM) | 0.39 µg/mL (≈ 0.965 µM) |  |  |  |  | NC1CCN(c2nc3c(cc2F)c(=O)c(C(=O)O)cn3-c2ccc(F)cc2F)C1 (stereo not shown) [Tosufloxacin, reference compound] | 4/5 | 1.8 point | 4/5 | 0.8 point
0.003 µg/mL (≈ 0.00724 µM) | 0.1 µg/mL (≈ 0.241 µM) |  |  |  |  | Cc1cc(F)c(N)cc1-n1cc(C(=O)O)c(=O)c2cc(F)c(N3CC(N)C3)c(C)c21 [Compound of Ex. 4, 7-(3-aminoazetidin-1-yl)-1-(3-amino-4-fluoro-6-methylphenyl)-6-fluoro-8-methyl-1,4-dihydro-4-oxoguinoline-3-carboxylic Acid] | 0/3 | 0 point | 0/3 | 0 point
0.006 µg/mL (≈ 0.0139 µM) | 0.1 µg/mL (≈ 0.231 µM) | 26.7% | 10.4% | 30.6% | 3.9% | Cc1c(N2CC(C)(N)C2)c(F)cc2c(=O)c(C(=O)O)cn(-c3cc(N)c(F)cc3F)c12 [Compound of Ex. 3, 7-(3-amino-3-methylazetidin-1-yl)-1-(3-amino-4,6-difluorophenyl)-6-fluoro-8-methyl-1,4-dihydro-4-oxoguinoline-3-carboxylic Acid] | 0/3 | 0 point | 0/3 | 0 point
0.013 µg/mL (≈ 0.0303 µM) | 0.2 µg/mL (≈ 0.467 µM) |  |  |  |  | CNC1CN(c2c(F)cc3c(=O)c(C(=O)O)cn(-c4cc(N)c(F)cc4C)c3c2C)C1 [Compound of Ex. 6, 1-(3-amino-4-fluoro-6-methylphenyl)-6-fluoro-8-methyl-7-(3-methylaminoazetidin-1-yl)-1,4-dihydro-4-oxoguinoline-3-carboxylic Acid] | 0/3 | 0 point | 0/3 | 0 point
0.013 µg/mL (≈ 0.0303 µM) | 0.2 µg/mL (≈ 0.467 µM) |  |  |  |  | Cc1cc(F)c(N)cc1-n1cc(C(=O)O)c(=O)c2cc(F)c(N3CC(C)(N)C3)c(C)c21 [Compound of Ex. 5, 7-(3-amino-3-methylazetidin-l-yl)-1-(3-amino-4-fluoro-6-methylphenyl)-6-fluoro-8-methyl-1,4-dihydro-4-oxoguinoline-3-carboxylic Acid] | 0/3 | 0 point | 0/3 | 0 point
0.006 µg/mL (≈ 0.0143 µM) | 0.2 µg/mL (≈ 0.477 µM) |  |  |  |  | Cc1c(N2CC(O)C2)c(F)cc2c(=O)c(C(=O)O)cn(-c3cc(N)c(F)cc3F)c12 [Compound of Ex. 8, 1-(3-amino-4,6-difluorophenyl)-6-fluoro-7-(3-hydroxyazetidin-1-yl)-8-methyl-4-oxo-1,4-dihydroquinoline-3-carboxylic Acid] | 0/3 | 0 point | 0/3 | 0 point
0.006 µg/mL (≈ 0.0143 µM) | 0.05 µg/mL (≈ 0.12 µM) |  |  |  |  | Cc1c(N2CC(N)C2)c(F)cc2c(=O)c(C(=O)O)cn(-c3cc(N)c(F)cc3F)c12 [Compound of Ex. 1, 7-(3-aminoazetidin-1-yl)-1-(3-amino-4,6-difluorophenyl)-6-fluoro-8-methyl-1,4-dihydro-4-oxoguinoline-3-carboxylic Acid] | 0/3 | 0 point | 0/3 | 0 point
0.006 µg/mL (≈ 0.0139 µM) | 0.1 µg/mL (≈ 0.231 µM) |  |  |  |  | CNC1CN(c2c(F)cc3c(=O)c(C(=O)O)cn(-c4cc(N)c(F)cc4F)c3c2C)C1 [Compound of Ex. 2, 1-(3-amino-4,6-difluorophenyl)-6-fluoro-8-methyl-7-(3-methylaminoazetidin-1-yl)-1,4-dihydro-4-oxoguinoline-3-carboxylic Acid] | 0/3 | 0 point | 0/3 | 0 point
0.013 µg/mL (≈ 0.0299 µM) | 0.1 µg/mL (≈ 0.23 µM) |  |  |  |  | Cc1c(N2CC(N)C2)c(F)cc2c(=O)c(C(=O)O)cn(-c3cc(N)c(F)cc3Cl)c12 [Compound of Ex. 7, 7-(3-aminoazetidin-1-yl)-1-(3-amino-6-chloro-4-fluorophenyl)-6-fluoro-8-methyl-1,4-dihydro-4-oxoguinoline-3-carboxylic Acid] | 0/3 | 0 point | 0/3 | 0 point
0.013 µg/mL (≈ 0.0313 µM) | 0.2 µg/mL (≈ 0.481 µM) |  |  |  |  | Cc1cc(F)c(N)cc1-n1cc(C(=O)O)c(=O)c2cc(F)c(N3CC(O)C3)c(C)c21 [Compound of Ex. 9, 1-(3-amino-4-fluoro-6-methylphenyl)-6-fluoro-7-(3-hydroxyazetidin-1-yl)-8-methyl-4-oxo-1,4-dihydroquinoline-3-carboxylic Acid] | 0/3 | 0 point | 0/3 | 0 point
